Measurements as given in US8518973B2, “Compounds having 4-pyridylalkylthio group as a substituent” (Santen Pharmaceutical Co., Ltd., priority 2003, dated 2013).

tested on: VEGF-induced HUVEC growth; experiment: VEGF-induced HUVEC growth reaction evaluation system (cell growth inhibitory action test); type: cell-based; conditions: Homo sapiens, 72 h, 20 μg/ml test compound solution added 5 μl per well (100 μl), VEGF solution 400 ng/ml 5 μl per well, three days, absorbance at 450 nm, read-out: Cell growth inhibition rate (%)
Description: Cell growth inhibitory action tests were carried out using a VEGF-induced HUVEC growth reaction evaluation system (HUVEC stands for human umbilical vein endothelial cells), which is one of widely-used methods of evaluating in vitro angiogenesis inhibitory effects of drugs.
As one of widely-used methods of evaluating angiogenesis inhibitory effects of drugs, a cell growth inhibitory action test using a VEGF-induced HUVEC growth reaction evaluation system was reported in Cancer Res., 59, 99-106(1999). According to the method described in the above-mentioned literature, cell growth inhibitory action tests of the present compounds were carried out, their cell growth inhibition rates were calculated, and angiogenesis inhibitory effects of the present compounds were evaluated using the obtained rates as indexes.
Each test compound was dissolved in dimethyl sulfoxide (hereinafter abbreviated as “DMSO”), and the obtained solution was diluted with commercially available phosphoric acid buffer solution (hereinafter abbreviated as “PBS”) to prepare a 20 μg/ml test compound solution.
HUVEC was suspended in a 0.5% fetal bovine serum (hereinafter abbreviated as “FBS”)-containing F12K medium to prepare a 2×10^4 cells/ml HUVEC suspension.
VEGF was dissolved in 0.1% bovine serum albumin-containing PBS, and the obtained solution was diluted with the 0.5% FBS-containing F12K medium to prepare a 400 ng/ml VEGF solution.
• 1) The HUVEC suspension was inoculated in each amount of 100 μl into each well of a 96-well plate coated with I type collagen (2×10^3 cells per well). • 2) One day after inoculation, the test compound solution was added in an amount of 5 μl per well. • 3) One hour after adding the test compound solution, the VEGF solution was added in an amount of 5 μl per well. • 4) Three days after adding the VEGF solution, cell counting kit-8(Dojin Chemical Co., Ltd.) was added in an amount of 10 μl per well. • 5) After three hours, the above-mentioned plate was attached to an absorptiometer (multi label counter ARVO), and absorbance at 450 nm of each well suspension (hereinafter referred to as “test compound suspension”) was measured. • 6) A test was carried out in the same manner as in 1) to 5) except that 1.0% DMSO was used instead of the test compound solution.
Incubation was carried out under conditions of 37° C., 5% carbon dioxide and 95% air in an incubator throughout the above-mentioned test steps.
Cell growth inhibition rates, which are indexes of angiogenesis inhibitory effects, were calculated by the following calculation equation.

| Structure (SMILES) | inhibition at 20 µg/mL (stock) |
| --- | --- |
| Cc1ccc(NC(=O)c2sccc2SCc2ccncc2)cc1F [1-248, N-(3-Fluoro-4-methylphenyl)-3-(4-pyridylmethylthio)thiophene-2-carboxamide] | 75% |
| O=C(Nc1cccc(Cl)c1)c1sccc1SCc1ccncc1 [1-249, N-(3 Chlorophenyl)3-(4-pyridylmethylthio)thiophene-2-carboxamide] | 100% |
| Cc1cc(C)cc(NC(=O)c2sccc2SCc2ccnc(Cl)c2)c1 [1-251, 3-(2-Chloropyridin-4-ylmethylthio)-N-(3,5-dimethylphenyl)thiophene-2-carboxamide] | 77% |
| Cc1cc(NC(=O)c2sccc2SCc2ccncc2)ccc1F [1-252, N-(4-Fluoro-3-methylphenyl)-3-(4-pyridylmethylthio)thiophene-2-carboxamide] | 100% |
| Cc1ccc(NC(=O)c2sccc2SCc2ccncc2)cc1C [1-253, N-(3,4-Dimethylphenyl)-3-(4-pyridylmethylthio)thiophene-2-carboxamide] | 100% |
| O=C(Nc1ccc(C(F)(F)F)cc1)c1sccc1SCc1ccncc1 [1-255, 3-(4-Pyridylmethylthio)-N-(4-trifluoromethylphenyl)thiophene-2-carboxamide] | 85% |
| CC(C)(C)c1ccc(NC(=O)c2sccc2SCc2ccncc2)cc1 [1-256, N-(4-tert-Butylphenyl)-3-(4-pyridylmethylthio)thiophene-2-carboxamide] | 100% |
| Cc1cccc(NC(=O)c2sccc2SCc2ccncc2)c1 [1-263, N-(3-Methylphenyl)-3-(4-pyridylmethylthio)thiophene-2-carboxamide] | 100% |
| O=C(Nc1ccc(F)c(F)c1)c1sccc1SCc1ccncc1 [1-269, N-(3,4-Difluorophenyl)-3-(4-pyridylmethylthio)thiophene-2-carboxamide] | 53% |
| CCCc1ccc(NC(=O)c2sccc2SCc2ccncc2)cc1 [1-270, N-(4-n-Propylphenyl)-3-(4-pyridylmethylthio)thiophene-2-carboxamide] | 99% |
| O=C(Nc1ccc(OC(F)(F)F)cc1)c1sccc1SCc1ccncc1 [1-273, 3-(4-Pyridylmethylthio)-N-(4-trifluoromethoxyphenyl)thiophene-2-carboxamide] | 100% |
| O=C(Nc1cc2ccccc2cn1)c1sccc1SCc1ccncc1 [1-274, N-(3-Isoquinolyl)-3-(4-pyridylmethylthio)thiophene-2-carboxamide] | 95% |
| O=C(Nc1cccc(C(F)(F)F)c1)c1sccc1SCc1ccncc1 [1-276, 3-(4-Pyridylmethylthio)-N-(3-trifluoromethylphenyl)thiophene-2-carboxamide] | 100% |
| O=C(Nc1ccc2c(c1)CCC2)c1sccc1SCc1ccncc1 [1-283, N-(5-Indanyl)-3-(4-pyridylmethylthio)thiophene-2-carboxamide] | 100% |
| Cc1cccc(NC(=O)c2ccsc2SCc2ccncc2)c1 [1-285, N-(3-Methylphenyl)-2-(4-pyridylmethylthio)thiophene-3-carboxamide] | 100% |
| O=C(Nc1ccc2c(c1)CCC2)c1ccsc1SCc1ccncc1 [1-287, N-(5-Indanyl)-2-(4-pyridylmethylthio)thiophene-3-carboxamide] | 95% |
| Cc1cc(NC(=O)c2ccsc2SCc2ccncc2)ccc1Br [1-289, N-(4-Bromo-3-methylphenyl)-2-(4-pyridylmethylthio)thiophene-3-carboxamide] | 100% |
| O=C(Nc1ccc(C(F)(F)F)cc1)c1ccsc1SCc1ccncc1 [1-290, 2-(4-Pyridylmethylthio)-N-(4-trifluoromethylphenyl)thiophene-3-carboxamide] | 100% |

| Structure (SMILES) | inhibition at 20 µg/mL (stock) |
| --- | --- |
| Cc1cc(C)cc(NC(=O)c2ccsc2SCc2ccncc2)c1 [1-291, N-(3,5-Dimethylphenyl)-2-(4-pyridylmethylthio)thiophene-3-carboxamide] | 100% |
| Cc1cccc(NC(=O)c2cscc2SCc2ccncc2)c1 [1-292, N-(3-Methylphenyl) 4 (4-pyridylmethylthio)thiophene-3 carboxamide] | 100% |
| COc1cc(CSc2ncccc2C(=O)Nc2cc(C)cc(C)c2)ccn1 [1-300, N-(3,5-Dimethylphenyl)-2-(2-methoxypyridin-4-ylmethylthio)pyridine-3-carboxamide] | 100% |
| Cc1cc(C)cc(NC(=O)c2cccnc2SCc2ccnc(C)c2)c1 [1-307, N-(3,5-Dimethylphenyl)-2-(2-methylpyridin-4-ylmethylthio)pyridine-3-carboxamide] | 100% |
| Cc1cc(CSc2ncccc2C(=O)Nc2ccc(OC(F)(F)F)cc2)ccn1 [1-308, 2-(2-Methylpyridin-4-ylmethylthio)-N-(4-trifluoromethoxyphenyl)pyridine-3-carboxamide] | 92% |
| O=C(Nc1ccc(Cl)cc1)c1cccnc1SCc1cc[n+]([O-])cc1 [4-1, N-(4-Chlorophenyl)-2-(1-oxopyridin-4-ylmethylthio)pyridine-3-carb oxamide] | 93% |
| Cc1cccc(NC(=O)c2cccnc2SCc2cc[n+]([O-])cc2)c1 [4-3, N-(3-Methylphenyl)-2-(1-oxopyridin-4-ylmethylthio)pyridine-3-carboxamide] | 100% |
| Cc1ccc(NC(=O)c2cccnc2SCc2cc[n+]([O-])cc2)cc1C [4-5, N-(3,4-Dimethylphenyl)-2-(1-oxopyridin-4-ylmethylthio)pyridine-3-carboxamide] | 100% |
| CC(C)c1cccc(NC(=O)c2cccnc2SCc2cc[n+]([O-])cc2)c1 [4-6, N-(3-Isopropylphenyl)-2-(1-oxopyridin-4-ylmethylthio)pyridine-3-carboxamide] | 100% |
| Cc1cc(NC(=O)c2cccnc2SCc2cc[n+]([O-])cc2)ccc1F [4-7, N-(4-Fluoro-3-methylphenyl)-2-(1-oxopyridin-4-ylmethylthio)pyridine-3-carboxamide] | 100% |
| CC(C)(C)c1ccc(NC(=O)c2cccnc2SCc2cc[n+]([O-])cc2)cc1 [4-10, N-(4-tert-Butylphenyl)-2-(1-oxopyridin-4-ylmethylthio)pyridine-3-carboxamide] | 100% |
| CC(Sc1ncccc1C(=O)Nc1cccc(Cl)c1)c1ccncc1 (stereo not drawn) [5-2, N-(3-Chlorophenyl)-2-[1-(4-pyridyl)ethylthio]pyridine-3-carboxamide] | 96% |
| Cc1cc(C)cc(NC(=O)c2cccnc2SCc2ccnc(C(=O)O)c2)c1 [6-1, 2-(2-Carboxypyridin-4-ylmethylthio)-N-(3,5-dimethylphenyl)pyridine-3-carboxamide] | 72% |
| CCCNC(=O)c1cc(CSc2ncccc2C(=O)Nc2cc(C)cc(C)c2)ccn1 [7-1, N-(3,5-Dimethylphenyl)-2(2-n-propylaminocarbonylpyridin-4-yl-methylthio)pyridine 3 carboxamide] | 100% |
| Cc1cc(C)cc(NC(=O)c2cccnc2SCc2ccnc(C(=O)Nc3ccc(Cl)cc3)c2)c1 [7-2, 2-[2-(4-Chlorophenylaminocarbonyl)pyridin-4-ylmethylthio]-N-(3,5-dimethylphenyl)pyridine-3-carboxamide] | 100% |
| CNC(=O)c1cc(CSc2ncccc2C(=O)Nc2cc(C)cc(C)c2)ccn1 [7-3, N-(3,5-Dimethylphenyl)-2-(2-methylaminocarbonylpyridin-4-ylmethylthio)pyridine-3-carboxamide] | 100% |
| COCCNC(=O)c1cc(CSc2ncccc2C(=O)Nc2cc(C)cc(C)c2)ccn1 [7-4, N-(3,5-Dimethylphenyl)-2-[2-(2-methoxyethylaminocarbonyl)pyridin-4-ylmethylthio]pyridine-3-carboxamide] | 100% |
| Cc1cc(C)cc(NC(=O)c2cccnc2SCc2ccnc(C(N)=O)c2)c1 [8-1, 2-(2-Carbamoylpyridin-4-ylmethylthio)-N-(3,5-dimethylphenyl)pyridine-3-carboxamide] | 100% |
